{"source": "patent US10376486B2", "about": "“Compositions and methods for reactivating latent viral infections” (priority 2014, dated 2019)", "key": {"[1]": {"system": "PKCδ/θ-IκBα/ε-NF-κB signaling", "test": "Western blot of PKC isoforms, IκB isoforms and NF-κB/p65", "assay_type": "cell-based", "conditions": "J-Lat A1 cells", "procedure": "Western blot analysis was performed to detect the expression of PKC isoforms, IκB isoforms, as well as expression of NF-κB/p65.\nWhole cell protein extracts were prepared with RIPA buffer containing proteinase inhibitors and phosphatase inhibitors (Sigma). Expression of the isoforms of PKC protein or NF-κB/p65 was evaluated using the PKC Isoform Sampler Antibody Kit (Cell Signaling, 9960S) or anti-NF-κB/p65 (Abcam). The level of phosphorylation of PKC was determined using anti-Phospho-Ser664-PKCδ, anti-Phospho-Ser643/676 PKCδ or anti-Phospho-T538-PKCθ (Millipore), and the level of phosphorylation of IκB was determined using p-IκBα(Ser32), p-IκBβ (Thr19/Ser23) or p-IκBε(Ser18/22) antibodies (Millipore)."}, "[2]": {"system": "NF-κB/p65 binding to HIV LTR", "test": "ChIP-qPCR of NF-κB/p65 binding to the HIV LTR in J-Lat A1 cells", "assay_type": "cell-based", "conditions": "12 nM PEP005", "procedure": "FIG. 4: PEP005-induced HIV reactivation is mediated through PKCδ/θ-IκBα/ε-NF-κB signaling. (A) PEP005-induced HIV reactivation is suppressed by inhibition of the PKCδ/θ. J-Lat A1 cells were treated with 6 nM of PEP005 in the presence of 1, 2 or 5 μM of PKC inhibitor (PKCθ/δ inhibitor; Milipore/Calbiochem (539649)) and evaluated for GFP expression by RT-qPCR. (B) NF-κB inhibition partially suppresses PEP005-induced HIV reactivation in J-Lat A1 cells. J-Lat A1 cells were treated with 6 nM of PEP005 in the presence of 2.5 μM Bay 11-7082, an NF-κB inhibitor, and were evaluated for GFP expression by RT-qPCR. (C) J-Lat A1 cells were treated with PEP005 or alternatively with PKC inhibitor alone or in the presence of PEP005 and the relative binding of NF-κB to the HIV LTR was determined using ChIP-qPCR.\nChromatin immunoprecipitation (ChIP): ChIP assay was performed as previously described. Briefly, 1×10^6 J-Lat A1 cells were incubated with PEP005, or PKCδ/θ inhibitor (PKGδi, Millipore/Calbiochem), fixed in 1% formaldehyde then resuspended in lysis buffer containing 1% SDS, 10 mM EDTA, 50 mM Tris-HCl, pH 8.1 (ChIP Assay Kit, Millipore) and protease inhibitor cocktail (Sigma-Aldrich). […] DNA was extracted (Qiagen PCR purification kit) and quantitative real-time PCR was performed using Agilent Brilliant Ultra-Fast SYBR Green QPCR reagent using the 7500 real-time PCR System. […]"}, "[3]": {"system": "J-Lat A1 cells, U1 cells, primary CD4+ T cells", "test": "Cell viability by MTT assay", "assay_type": "cell-based", "conditions": "J-Lat A1 and U1 cell lines, 12 nM PEP005, 24 hours", "procedure": "FIG. 7: PEP005 causes minimal cytotoxicity and T cell proliferation. To evaluate the impact of PEP005 on the cell viability, U1 cells (A), J-Lat A1 cells (B) and CD4+ T cells (C) were treated with 12 nM of PEP005 for 24 hours, the cell viability was examined with the MTT assay and the S-phase cell cycle progression was evaluated after BrdU incorporation using BrdU ELISA. 25-50 μM Etoposide or 100-150 μM Doxorubicin (Doxo) served as positive controls for MTT and BrdU assays respectively. Statistical analysis was performed in comparison with controls. **, p<0.01.\nCells were placed in 96-well plates and incubated for 24 or 72 h hrs with compounds. Cell viability was measured using MTT assay (Roche Laboratories), and cell proliferation/S-phase progression was determined by using BrdU ELISA kit (Cell signaling, #1863)."}, "[4]": {"system": "latent HIV in primary CD4+ T cells", "test": "Ex vivo HIV transcription in primary CD4+ T cells from HIV infected individuals on suppressive ART (RT-qPCR)", "assay_type": "cell-based", "experimental": "Primary CD4+ T cells were isolated from peripheral blood of HIV infected individuals on suppressive ART and treated with 6 or 12 nM PEP005, 200 ng/ml PMA plus 2 μM lonomycin, or DMSO for 6 hours. Induction of HIV transcription was measured using RT-qPCR for the 5′ LTR region or Poly A region of the virus. **, p<0.01.\nPrimary CD4+ T cells were isolated from the peripheral blood of HIV positive individuals on suppressive ART and treated with 12 nM PEP005 alone or in combination with JQ1 for 6 hours, and HIV transcription was quantified using RT-qPCR for the 5′ LTR region or Poly A region of the virus.\nPrimary CD4+ T cells were isolated from the peripheral blood of HIV positive individuals on suppressive ART and treated with 12 nM PEP005 alone or in combination with JQ1 for 48 hours, and HIV transcription was quantified using RT-qPCR for the 5′ LTR region or Poly A region of the virus.\nPrimary CD4+ T cells were isolated from the peripheral blood of HIV positive individuals on suppressive ART and treated with 12 nM PEP005 alone or in combination with JQ1 for 6 or 48 hours, and HIV transcription was quantified using RT-qPCR for the 5′ LTR region or Poly A region of the virus.\nPeripheral blood samples were collected from 13 HIV-infected individuals receiving suppressive ART for >3 years except for one patient. All subjects had suppression of plasma viremia for more than 6 months (Average 5.84 years). At the time of the study enrollment, CD4+ T cell counts in peripheral blood samples ranged from 264 to 1100 cells/mm^3 (Average 639 cell/mm^3) and plasma viral loads were <20 copies per ml as measured by qPCR (Table 1). Isolation of the peripheral blood mononuclear cells (PBMC) and purification of CD4+ T cells using the EasySep kit ([sequence] Technologies Inc. Vancouver, BC, Canada) were performed as previously described [24]. The purified CD4+ T cells were plated at a density of 1×10^6 cells/ml and treated with 200 ng/ml PMA plus 2 μM Ionomycin, 6-12 nM PEP005, 2 μM of JQ1, or 12 nM PEP005 plus 2 μM JQ1 for 6 hrs or 48 hrs and the cells were collected for RNA purification."}, "[5]": {"conditions": "systemic (intravenous), mini pig and rat model; cited from earlier work"}}}
{"smiles": "C/C=C(/C)C(=O)O[C@H]1C(C)=C[C@]23C(=O)[C@@H](C=C(CO)[C@@H](O)[C@]12O)[C@H]1[C@@H](C[C@H]3C)C1(C)C", "note": "[PEP005, (1aR,2S,5R,5aS,6S,8aS,9R,10aR)-5,5a-Dihydroxy-4-(hydroxymethyl)-1,1,7,9-tetramethyl-11-oxo-1a,2,5,5a,6,9,10,10a-octahydro-1H-2,8a-methanocyclopenta[a]cyclpropa[e][10]annulen-6-yl (2Z)-2-methylbut-2-enoate]", "values": [{"measurement": "expression of NF-κB/p65", "setting": "[1]; 12 nM PEP005", "value": "did not change"}, {"measurement": "phosphorylation of IκB isoforms", "setting": "[1]; 12 nM PEP005", "value": "induced phosphorylation of IκBα and IκBε, but not of IκBβ"}, {"measurement": "expression of PKC proteins", "setting": "[1]; 12 nM PEP005, 1 hr", "value": "modest up-regulation of PKCδ"}, {"measurement": "phosphorylation of Ser643/Ser676 in PKCδ/θ", "setting": "[1]; 12 nM PEP005, as early as 30 minutes post treatment", "value": "greater than a two-fold increase"}, {"measurement": "increase in NF-κB/p65 binding to HIV LTR region", "setting": "[2]", "value": 6, "unit": "fold"}, {"measurement": "cellular toxicity (MTT)", "setting": "[3]", "value": "minimal levels of cellular toxicity"}, {"measurement": "individuals with increase in HIV transcription, 5′ LTR region", "setting": "[4]; 6 nM PEP005, 6 hrs", "value": "2 out of 7"}, {"measurement": "donors with 2 or >2 fold increase in full-length HIV transcripts, poly A region", "setting": "[4]; 12 nM PEP005", "value": "5 of the 6"}, {"measurement": "HIV RNA copy number in 1 μg of total RNA from CD4+ T cells", "setting": "[4]; 12 nM PEP005, 6 hr, vs control treatment", "value": "significantly induced latent HIV reactivation"}, {"measurement": "individuals with HIV transcription, 5′ LTR region", "setting": "[4]; 12 nM PEP005, 6 hrs", "value": "5 out of 7"}, {"measurement": "donors with 2 fold or >2 fold increase in full-length HIV transcripts, poly A region", "setting": "[4]; After 6 hours of PEP005 treatment", "value": "5 of the 7"}, {"measurement": "maximum nonlethal dose", "setting": "[5]", "value": "> 0.073", "unit": "mg/kg"}]}
